Patent publication US20240342195A1, “AGENT FOR COMBINATION USE COMPRISING T CELL AND/OR B CELL ACTIVITY REGULATOR” (TOKAI UNIVERSITY EDUCATIONAL SYSTEM, priority 2021, published 2024)

How the values were obtained:
[1] = test system: BeWo; test: proliferating ability of cell line cultured with P4 or COR; format: cell-based, human; settings: 200 μM or less, cultured 10 days
Experimental: (§1) Each of human choriocarcinoma cell line JEG-3, BeWo, and embryonic kidney cell line HEK293 was cultured for 10 days at 37° C. in 5% CO2 in a 10% Fetal Calf Serum (FCS)-containing DMEM (Gibuco) to which water-soluble progesterone (P4; water soluble) (Sigma) or cortisol (COR) (Sigma) was added in various concentrations. Each of mouse myeloma cell line P3-X63-Ag8-U1 (P3X) and mouse lymphoma cell line A20 was cultured for 3 days at 37° C. in 5% CO2 in 10% FCS-containing RPMI 1640 to which P4 or COR was added in various concentrations. Proliferation of the cells was evaluated by measuring the number of the cells.

[2] = test system: HEK293; test: as above; format: cell-based, human; settings: 200 μM or less, cultured 10 days
Experimental: as §1

[3] = test system: JEG-3; test: as above; format: cell-based, human; settings: 200 μM or less, cultured 10 days
Experimental: as §1

[4] = test system: A20; test: as above; format: cell-based, mouse; settings: 2 μM or less, cultured 3 days
Experimental: as §1

[5] = test system: P3-X63-Ag8-U1 (P3X); test: as above; format: cell-based, mouse; settings: 2 μM or less, cultured 3 days
Experimental: as §1

[6] = test system: Human peripheral blood mononuclear cells (PBMCs); test: number of cells of TSST-1-stimulated PBMCs cultured with P4 or COR; format: cell-based; settings: PBMCs + TSST-1; 3 days
Experimental: (§2) The PBMCs (final concentration: 1×10^6/mL) were cultured for 3 days at 37° C. in 5% CO2 in 10% FCS-containing RPMI 1640 to which P4 or COR was added in various concentrations with stimulation by 1 μg/mL of toxic shock syndrome toxin-1 (TSST-1). These cells were collected, washed with PBS, and dispensed into a Fisher tube in an amount of 1×10^6 cells/tube. For analysis of a human cell surface marker, a fluorescent-labeled anti-human monoclonal antibody (mAbs) was used. The cells were stained with the mAbs, a reaction was performed for 15 minutes at 4° C., and the resultant was washed with PBS containing 1% (w/v) BSA. Then, the resultant was analyzed by FACS Fortessa, or FACS Verse (BD Bioscience, Franklin Lakes, NJ). In the analysis, a leukocyte gated or lymphocyte gated cells were further gated by expression of human CD45, and then the analysis was performed. A culture supernatant was collected, and 25 μL thereof was dispensed to quantitatively determine cytokine with Legend Plex™ kit from BioLegend.

[7] = test system: CD4 and CD8 T cells in PBMCs; test: FCM analysis of activation/exhaustion markers (CD25, PD-1) on T cells of TSST-1-stimulated PBMCs; format: cell-based, human; settings: 20 to 200 μM
Experimental: as §2

[8] = test system: B cell in PBMCs; test: FCM analysis of PD-1 on B cells of TSST-1-stimulated PBMCs; format: cell-based, human; settings: TSST-1 and P4/COR stimulation; data not shown
Experimental: as §2

[9] = test system: CD4 and CD8 T cells in PBMCs; test: restimulation experiment (transient vs continuous P4/COR), PD-1/PD-L1 on T cells; format: cell-based, human; settings: TSST-1 3 days
Experimental: (§3) In a restimulation experiment, PBMCs were cultured for 6 hours at 37° C. in 5% CO2 in 10% FCS-containing RPMI 1640 to which 200 μM P4 or COR was added. These cells were washed, adjusted to a final concentration of 1×10^6/mL, and cultured again in the presence or absence of 200 μM P4 or COR with stimulation by 1 μM TSST-1. After 72 hours, the resultant cells were collected to be analyzed by FCM.

[10] = test system: B cell in PBMCs; test: restimulation experiment (transient vs continuous P4/COR), PD-L1 on B cells; format: cell-based, human; settings: addition of 200 μM; TSST-1 3 days
Experimental: as §3

[11] = test system: Hu-PBMC-NOG (GVHD onset model); test: GVHD onset model: human PBMCs transplanted to NOG mouse, P4 or COR administered subcutaneously; format: in vivo; settings: 2 mg/head subcutaneously twice a week, 4 weeks
Experimental: In the analysis using the GVHD model, PBMCs prepared in the same manner as described above were washed with PBS, and 2.5×10^6 PBMCs were intravenously transplanted to each 8- to 9-week-old NOG mouse. […] At the same time as the administration, the weight was measured. After 4 weeks, the mouse was anesthetized to collect heart blood, and euthanized. From various lymphoid organs excised, human cells were prepared, hemolyzed, and then subjected to FCM. Besides, the lung and the liver were excised, and immunohistochemically stained as follows. A tissue of the mouse was immobilized with 20% formalin (Wako Pure Chemical Industries, Ltd.), and embedded in paraffin. The obtained paraffin block was sliced, and the resultant was subjected to deparaffinization, mounted on a slide glass, and stained with hematoxylin and eosin (HE). In immunohistochemical staining with an anti-human CD45 antibody, the slide was subjected to a heat treatment at 97° C. for 20 minutes, and subjected to an endogenous peroxidase treatment through a reaction with 0.3% H2O2/MetOH at room temperature for 10 minutes. Thereafter, the resultant was blocked with 1% goat serum, and anti-human CD45 (Dako) was added thereto, followed by a reaction overnight at 4° C. The resultant slide was washed 3 times with 0.01 M PBS for 5 minutes, and colored with a DAB solution. The resultant was washed with running water for 3 minutes, and stained with hematoxylin, followed by dehydration and penetration/encapsulation.

[12] = test system: PBMC-NOG-hIL-4-Tg mouse; test: transplantation of P4/COR-cultured PBMCs to NOG-hIL-4-Tg mouse immunized with CH401MAP; format: in vivo; settings: PBMCs cultured with 200 μM for 6 hours before transplantation
[13] = test system: B cell (CD19 gated) in human PBMCs; test: atezolizumab addition experiment, PD-L1/PD-1 expression on B cell by FCM; format: cell-based; settings: 3 days
Experimental: (§4) As for an experiment of atezolizumab addition, 0 to 200 μM P4 or COR, 1 μM TSST-1, and 100 μg/mL atezolizumab were added to PBMCs, and the resultant was cultured for 72 hours at 37° C. in 5% CO2, followed by analysis by FCM.

[14] = test system: T cell (CD3 gated) in human PBMCs; test: atezolizumab addition experiment, PD-L1/PD-1 expression on T cell by FCM; format: cell-based; settings: 3 days
Experimental: as §4

[15] = test system: humanized mouse; test: PD-L1/PD-1 expression in humanized mouse in vivo after atezolizumab administration; settings: data not shown
[16] = test system: human breast cancer cell line MDA-MB-231; test: cancer-bearing CMV-NOG-hIL-4-Tg mouse with MDA-MB-231 and human PBMCs transplanted; format: in vivo
Experimental: 5×10^6 MDA-MB231 was subcutaneously administered to a ventral portion of a 6- to 7-week-old NOG-hIL-4-Tg mouse (a hIL-4 concentration in blood of 100 pg/mL or more). Diameters of the tumor along the ventral and in a direction at a right angle to the ventral were measured with a caliper every 2 days from one week after the administration, and the product thereof was defined as the size of the tumor. Two weeks after the tumor transplantation, 5×10^6 PBMCs were intravenously transplanted to the cancer-bearing mice and non-cancer-bearing mice as a control group. The measurement of the tumor diameters was similarly continued after the PBMC transplantation. The non-cancer bearing mice were divided into two groups, and PBS or atezolizumab ([…], 3 times (every 10 days)) was administered to each group. The cancer-bearing mice were divided into three groups, and PBS, atezolizumab ([…], 3 times (every 10 days)), or liposome (amount equivalent to 225 μg of atezolizumab and 40 μg of P4/dose, 6 times (every 5 days)) was administered to each group.
After 4 weeks, the mice were anesthetized to collect heparinized blood, and were euthanized. From various lymph tissues collected, cells were collected, and erythrocytes were removed therefrom with a hemolysis buffer to prepare a cell suspension. The number of cells therein was counted, and a human leukocyte fraction was subjected to flowcytometry (FCM) analysis. A tumor tissue was used for immunohistochemical staining.
For human immunocytochemistry, the same antibodies as those used in Example 1 were used. Cells were reacted with an appropriate amount of each of various, fluorescent-labeled antibodies for 15 minutes at 4° C., and washed with PBS containing 1% BSA. The resultant cells were analyzed with FACS Fortessa or Verse (manufactured by BD Bioscience). Living cells were gated, and human CD45-positive cells were further gated to obtain a human leukocyte fraction. These cells were further divided with a cell surface marker to obtain lymphocyte subsets. For data analysis, FlowJo (BD) was used.
A tissue of the mouse was immobilized with 20% formalin (manufactured by Wako Pure Chemical Industries, Ltd.), and embedded in paraffin. The resultant paraffin block was sliced, and the resultant was subjected to deparaffinization, mounted on a slide glass, and stained with hematoxylin and eosin (HE). In immunohistochemical staining with an anti-human CD8 antibody, the slide was subjected to a heat treatment at 120° C. for 20 minutes, and subjected to an endogenous peroxidase treatment through a reaction with 0.3% H2O2/MetOH at room temperature for 10 minutes. Thereafter, the resultant was blocked with 1% goat serum, and anti-human CD8 (manufactured by Dako) was added thereto, followed by a reaction at 25° C. for 60 minutes. The resultant slide was washed 3 times with 0.01 M PBS for 5 minutes, followed by a reaction at 25° C. for 60 minutes with simple stain MAX-PO (manufactured by Nichirei Biosciences Inc.). The resultant slide was washed 3 times with 0.01 M PBS for 5 minutes, and colored with a DAB solution. The resultant was washed with running water for 3 minutes, and stained with hematoxylin, followed by dehydration and penetration/encapsulation.

[17] = atezolizumab 450 pg/head/dose 3 times, liposome equivalent to 225 μg atezolizumab and 40 μg P4/dose 6 times, 4 weeks

C[C@]12CCC(=O)C=C1CC[C@@H]1[C@@H]2[C@@H](O)C[C@@]2(C)[C@H]1CC[C@]2(O)C(=O)CO [COR, cortisol]
cell proliferating ability [1]: minimally changed
cell proliferating ability [2]: minimally changed
cell proliferating ability [3]: minimally changed
proliferation [4]: almost completely suppressed
proliferation [5]: almost completely suppressed
number of cells vs control group [6]: substantially no difference
PD-1 expression on T cells ([7]; day 3): not suppressed depending on the COR concentration
activation marker-negative (non-activated) T cells ([7]; day 3): not largely increased
number of activated cells ([7]; day 3, data not shown): reduced
ratio of later-phase activated (CD25-positive PD-1-positive) T cells ([7]; CD4 and CD8 T cells, day 3): did not depend on the COR concentration
PD-1 expression on B cell [8]: not increased
ratio of later-phase activated (PD-1/PD-L1-positive) cells ([9]; CD4 and CD8 T cells, continuously added, 200 μM): not suppressed as much as that obtained by P4 addition
CD8 T cell activation vs control group ([9]; transiently added (200 μM 6 hours, washed)): significantly suppressed
PD-L1 expression in B cell [10]: tended to reduce PD-L1 expression
GVHD symptoms [11]: reduced GVHD symptoms
lymphocyte engraftment [11]: lymphocyte engraftment failure was also caused
lymphocytes [11]: reduced lymphocytes
engraftment ability of transplanted PBMCs ([12]; analysis after 4 weeks): low engraftment ability
specific antibody production (CH401MAP) ([12]; plasma after 4 weeks): suppressed
PD-L1 expression in a B cell ([13]; 0 to 200 μM, TSST-1): showed PD-L1 expression

atezolizumab
PD-1 expression in a T cell [14]: increased
PD-L1 expression in a T cell [14]: reduced
PD-1 expression in a B cell [13]: increased
PD-1 expression [15]: tended to be increased
PD-L1 expression [15]: tended to be reduced
engraftment of a B cell (CD19-positive) in spleen cells [16, 17]: reduced
ratio of a T cell (CD3-positive) in spleen cells [16, 17]: increased
ratio of the CD8-positive killer T cell in spleen cells [16, 17]: increased
increase of the tumor (tumor diameter) ([16]; compared with PBS administration group): suppressed
human (killer) T cell infiltration into the tumor mass ([16]; histochemical staining (anti-human CD8), liposome compared with atezolizumab alone): obviously observed
